From PubChem BioAssay (NCI)
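Following 48 hours of exposure in 96-well plates, responses at five concentrations were used to interpolate endpoints linearly. Definition used: TGI = concentration required for complete inhibition of growth.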

Assays:
Experiment in all cases: DTP human tumour cell line panel, 48 h
[1] = test system: OVCAR-8 ovarian
[2] = test system: M14 melanoma
[3] = test system: 786-0 renal
[4] = test system: SN12C renal
[5] = test system: HT29 colon
[6] = test system: PC-3 prostate
[7] = test system: UO-31 renal
[8] = test system: K-562 leukemia
[9] = test system: HCT-116 colon
[10] = test system: NCI-H522 lung
[11] = test system: OVCAR-3 ovarian
[12] = test system: CAKI-1 renal
[13] = test system: BT-549 breast
[14] = test system: NCI-H460 lung
[15] = test system: SNB-75 CNS
[16] = test system: U251 CNS

Compound | TGI [1] | TGI [2] | TGI [3] | TGI [4] | TGI [5] | TGI [6] | TGI [7] | TGI [8] | TGI [9] | TGI [10] | TGI [11] | TGI [12] | TGI [13] | TGI [14] | TGI [15] | TGI [16]
COc1cc(S(=O)(=O)Nc2ccc(-c3csc(N4C(=O)C(C)SC4c4cccs4)n3)cc2)ccc1Cl (stereo unspecified) | > 100 µM | > 100 µM | > 100 µM | > 100 µM | > 100 µM | > 100 µM | > 100 µM | > 100 µM | > 100 µM | 56.6 µM | > 100 µM | > 100 µM | > 100 µM | – | – | –
CN1CCN(c2cc3nc(-c4ccc(Cl)cc4)[nH]c3cc2F)CC1 | > 100 µM | 8.4 µM | 67.2 µM | > 100 µM | – | 40.8 µM | 20.6 µM | 28.7 µM | > 54.4 µM | 32 µM | 25.7 µM | 73.4 µM | 31.1 µM | > 53.9 µM | 50.1 µM | > 75.9 µM
CCc1n[nH]c(=O)n1CC | > 100 µM | – | > 100 µM | > 100 µM | > 100 µM | – | > 100 µM | > 100 µM | > 100 µM | > 100 µM | > 100 µM | > 100 µM | > 100 µM | > 100 µM | – | > 100 µM
CC1(C)Cc2c(sc3[nH]c(=S)[nH]c(=S)c23)CS1 | > 100 µM | > 100 µM | > 100 µM | > 100 µM | > 100 µM | > 100 µM | > 100 µM | > 100 µM | > 100 µM | – | 82.9 µM | > 100 µM | > 100 µM | > 100 µM | – | > 100 µM
CCO/C(O)=C(/C(=N)N1CCOCC1)C(=O)NC(C)C | > 100 µM | > 100 µM | > 100 µM | > 100 µM | > 100 µM | > 100 µM | – | > 100 µM | > 100 µM | > 100 µM | > 100 µM | > 100 µM | > 100 µM | > 100 µM | > 100 µM | > 100 µM
Cc1c(C(=O)c2ccccc2)[n+](=O)c2cc(Cl)c(Cl)cc2n1[O-] | 23.2 µM | 7.7 µM | 29.3 µM | 30.5 µM | 28.7 µM | 59.5 µM | 26.1 µM | 17.8 µM | 26.3 µM | – | 25 µM | 14.1 µM | 31.5 µM | 30.9 µM | 15.8 µM | 29.9 µM
O=c1[nH]c(=O)c2c([nH]1)[nH]c1ccc(Br)cc12 | > 100 µM | > 100 µM | > 100 µM | > 100 µM | > 100 µM | – | > 100 µM | – | > 100 µM | > 100 µM | – | > 100 µM | > 100 µM | – | > 100 µM | –
Cc1cc(C)c(NS(=O)c2cccc(C(F)(F)F)c2)c(C)c1 (stereo unspecified) | > 100 µM | > 100 µM | > 100 µM | > 100 µM | > 100 µM | > 100 µM | > 100 µM | > 100 µM | – | – | > 100 µM | – | > 100 µM | > 100 µM | – | > 100 µM
C/C(=C\COP(=O)(O)OP(=O)(O)O)CCCCCCOCc1ccccc1 | > 100 µM | > 100 µM | > 100 µM | > 100 µM | > 100 µM | – | > 100 µM | > 100 µM | > 100 µM | > 100 µM | > 100 µM | > 100 µM | > 100 µM | > 100 µM | > 100 µM | > 100 µM
CC(Br)CN1CCOCC1 (stereo unspecified) | > 100 µM | > 100 µM | > 100 µM | > 100 µM | > 100 µM | > 100 µM | > 100 µM | > 100 µM | > 100 µM | > 100 µM | > 100 µM | > 100 µM | > 100 µM | > 100 µM | – | > 100 µM
Clc1cccc(-c2nc3cccc4c3n2Cc2ncccc2-4)c1 | > 100 µM | > 100 µM | > 100 µM | > 100 µM | > 100 µM | > 100 µM | – | > 100 µM | > 100 µM | > 100 µM | > 100 µM | > 100 µM | > 100 µM | > 100 µM | 58.6 µM | > 100 µM
C=C1CC[C@@H]2C13[C@@H]1[C@H](CC(=O)[C@@]23C)C1(C)C (stereo partly specified) | > 100 µM | > 100 µM | > 100 µM | > 100 µM | > 100 µM | > 100 µM | > 100 µM | > 100 µM | > 100 µM | > 100 µM | > 100 µM | > 100 µM | > 100 µM | > 100 µM | – | > 100 µM
CCCCC(=O)/C=c1/cc(C)[nH]c2cccc3cnn1c32 | > 100 µM | > 100 µM | > 100 µM | > 100 µM | > 100 µM | > 100 µM | > 100 µM | – | > 100 µM | > 100 µM | > 100 µM | > 100 µM | > 100 µM | – | – | > 100 µM
CC(O)CNC(=O)Nc1c(C(F)(F)F)cc(-c2ccccc2)[nH]c1=O (stereo unspecified) | > 100 µM | > 100 µM | > 100 µM | > 100 µM | > 100 µM | > 100 µM | > 100 µM | > 100 µM | > 100 µM | > 100 µM | > 100 µM | > 100 µM | > 100 µM | > 100 µM | – | > 100 µM
C=C1N(S(=O)(=O)c2ccc(C)cc2)C(=O)OCC12CCCC2 | > 100 µM | > 100 µM | > 100 µM | – | > 100 µM | > 100 µM | > 100 µM | > 100 µM | > 100 µM | > 100 µM | > 100 µM | > 100 µM | > 100 µM | > 100 µM | 62.6 µM | > 100 µM
COc1ccc(N2C(=O)C(Cl)C2c2cc3cc(Br)ccc3nc2Cl)cc1 (stereo unspecified) | > 25 µM | 11 µM | 18.5 µM | 12.3 µM | 8.84 µM | 21 µM | 2.43 µM | > 25 µM | 9.51 µM | 8.33 µM | > 25 µM | 18.9 µM | 9.11 µM | 12.2 µM | > 25 µM | –
